Source: ChEMBL document CHEMBL1123592, “Cluster significance analysis contrasted with three other quantitative structure-activity relationship methods” (J Med Chem, 1987)

Columns and labels:
[1] = Partition coefficient (logP); assay type: physicochemical; conditions: octanol/water
[2] = In vitro antibacterial activity was determined; antibacterial potency is less than 50% of that of lasalocid; assay type: functional
[3] = Dissociation constant was determined; assay type: physicochemical
[4] = In vitro antibacterial activity was determined; assay type: functional

Structure (SMILES) | logP [1] | Activity [2] | pKa [3] | Activity [4]
CCCCCCCCCC(=O)Oc1c(C)ccc(CC[C@@H](C)[C@H](O)[C@H](C)C(=O)[C@H](CC)[C@H]2O[C@](CC)([C@H]3CC[C@](O)(CC)[C@H](C)O3)C[C@@H]2C)c1C(=O)O | 2.75 | 0 | – | –
CC[C@@H](C(=O)[C@@H](C)[C@@H](O)[C@H](C)CCc1c(/N=C/c2ccccc2)cc(C)c(O)c1C(=O)O)[C@H]1O[C@](CC)([C@H]2CC[C@](O)(CC)[C@H](C)O2)C[C@@H]1C | 0.86 | 0 | – | –
CC[C@@H](C(=O)[C@@H](C)[C@@H](O)[C@H](C)CCc1ccc(C)c(OC(=O)c2ccc(Br)cc2)c1C(=O)O)[C@H]1O[C@](CC)([C@H]2CC[C@](O)(CC)[C@H](C)O2)C[C@@H]1C | 3.48 | 0 | – | –
CC[C@@H](C(=O)[C@@H](C)[C@@H](O)[C@H](C)CCc1c([N+](=O)[O-])cc(C)c(O)c1C(=O)O)[C@H]1O[C@](CC)([C@H]2CC[C@](O)(CC)[C@H](C)O2)C[C@@H]1C | 2.46 | 0 | 2.4 | –
CCCCCCCC(=O)Oc1c(C)ccc(CC[C@@H](C)[C@H](O)[C@H](C)C(=O)[C@H](CC)[C@H]2O[C@](CC)([C@H]3CC[C@](O)(CC)[C@H](C)O3)C[C@@H]2C)c1C(=O)O | 2.21 | 0 | – | –
CCCCC(=O)Oc1c(C)ccc(CC[C@@H](C)[C@H](O)[C@H](C)C(=O)[C@H](CC)[C@H]2O[C@](CC)([C@H]3CC[C@](O)(CC)[C@H](C)O3)C[C@@H]2C)c1C(=O)O | 2.08 | 0 | – | –
CC[C@@H](C(=O)[C@@H](C)[C@@H](O)[C@H](C)CCc1c(NC(C)=O)cc(C)c(O)c1C(=O)O)[C@H]1O[C@](CC)([C@H]2CC[C@](O)(CC)[C@H](C)O2)C[C@@H]1C | 1.04 | 0 | 4.3 | –
CC[C@@H](C(=O)[C@@H](C)[C@@H](O)[C@H](C)CCc1c(N)cc(C)c(O)c1C(=O)O)[C@H]1O[C@](CC)([C@H]2CC[C@](O)(CC)[C@H](C)O2)C[C@@H]1C [AMINOLASALOCID] | 0.28 | 0 | 6 | –
CC[C@@H](C(=O)[C@@H](C)[C@@H](O)[C@H](C)CCc1c(Br)cc(C)c(O)c1C(=O)O)[C@H]1O[C@](CC)([C@H]2CC[C@](O)(CC)[C@H](C)O2)C[C@@H]1C [BROMOLASALOCID] | 3.25 | – | 3.9 | 1
CC[C@@H](C(=O)[C@@H](C)[C@@H](O)[C@H](C)CCc1c(Cl)cc(C)c(O)c1C(=O)O)[C@H]1O[C@](CC)([C@H]2CC[C@](O)(CC)[C@H](C)O2)C[C@@H]1C [CHLOROLASALOCID] | 3.12 | – | 4 | 1
CC[C@@H](C(=O)[C@@H](C)[C@@H](O)[C@H](C)CCc1c([N+]#N)cc(C)c(O)c1C(=O)O)[C@H]1O[C@](CC)([C@H]2CC[C@](O)(CC)[C@H](C)O2)C[C@@H]1C [DIAZOLASALOCID] | – | 0 | 6.6 | –
CC[C@@H](C(=O)[C@@H](C)[C@@H](O)[C@H](C)CCc1c(I)cc(C)c(O)c1C(=O)O)[C@H]1O[C@](CC)([C@H]2CC[C@](O)(CC)[C@H](C)O2)C[C@@H]1C [IODOLASALOCID] | 3.19 | – | 3.9 | 1
CC[C@@H](C(=O)[C@@H](C)[C@@H](O)[C@H](C)CCc1ccc(C)c(O)c1C(=O)O)[C@H]1O[C@](CC)([C@H]2CC[C@](O)(CC)[C@H](C)O2)C[C@@H]1C [LASALOCID] | 2.83 | – | 4.4 | 1
